Assay results published in ChEMBL document CHEMBL3046931, “Synthesis, antioxidant, and antitumor evaluation of certain new N-substituted-2-amino-1,3,4-thiadiazoles” (Med Chem Res, 2013).

How the values were obtained:
Ehrlich = assay: In vitro antitumor activity against Mus musculus (mouse) Ehrlich ascites cell assessed as dead tumor cells by trypan blue exclusion test; assay type: functional
[1] = Pro-oxidant activity assessed as bleomycin-Fe3+ complex-induced DNA damage at 1 mg/ml after 1 hr; assay type: ADME
[2] = Antioxidant activity assessed as inhibition of ABTS free radical formation at 1 mg/ml by spectroscopic analysis (reference value: 0%); assay type: functional
[3] = Antioxidant activity assessed as inhibition of ABTS free radical formation at 2 mM by spectroscopic analysis (reference value: 0%); assay type: functional

SMILES | ED25 (Ehrlich) [microg/cm3] | ED50 (Ehrlich) [microg/cm3] | ED100 (Ehrlich) [microg/cm3] | OD [1] | inhibition [2] [%] | inhibition [3] [%]
Cc1cc(C)c2c(NN/C=C(\C#N)C(=O)Nc3nncs3)n[nH]c2n1 | 5 | 10.2 | 19 | 0.109 | 51.8 | 
Clc1ccc(C/N=c2/scnn2Cc2ccc(Cl)cc2)cc1 | 7.4 | 16 | 29 | 0.121 | 38 | 
Clc1ccc(CNc2nncs2)cc1 |  |  |  | 0.108 | 0.354 | 
N#CCC(=O)Nc1nncs1 |  |  |  | 0.08 | 70.9 | 
O=C(Nc1nncs1)c1ccc(Cl)cc1 | 11 | 24 | 52 | 0.1 | 26.5 | 
O=C(CN1CCN(c2ccccc2)CC1)Nc1nncs1 | 13 | 24 | 46.1 | 0.096 | 25.7 | 
Clc1ccc(-c2nnnn2-c2nncs2)cc1 | 12 | 23 | 41 |  |  | 
N#C/C(=C\c1ccc(N2CCCCC2)cc1)C(=O)Nc1nncs1 |  |  |  | 0.114 | 28.7 | 
c1nnc(/N=N/Nc2nncs2)s1 | 19.3 | 33 | 61.5 | 0.103 | 24.5 | 
Cl/C(=N\c1nncs1)c1ccc(Cl)cc1 | 6.9 | 13 | 6.9 |  |  | 
N#CSCC(=O)Nc1nncs1 |  |  |  | 0.099 | 25.7 | 
O=C(CNc1nncs1)Nc1nncs1 | 9.4 | 18.9 | 39.1 |  |  | 
Cc1cc(C)c2c(n1)nn1c(N)c(C(=O)Nc3nncs3)nnc21 | 25 | 48.2 | 80.7 |  |  | 
O=Cc1ccc(Nc2nncs2)cc1 | 8.7 | 17.9 | 38.3 | 0.1 | 26.5 | 
Nc1nnc(SCC(=O)Nc2nncs2)s1 | 14.4 | 27 | 42.5 | 0.101 | 20.7 | 
CC1=NN(c2ccccc2)C(=O)/C1=N\Nc1nncs1 | 10 | 21 | 42.1 |  |  | 
Nc1nncs1 | 37 | 56 | 92.9 | 0.09 | 28.5 | 
O=C1O[C@H]([C@@H](O)CO)C(O)=C1O [ASCORBIC ACID] |  |  |  | 0.098 |  | 88.5
CN(C)/C=C(\C#N)C(=O)Nc1nncs1 | 7.8 | 14.1 | 26 | 0.127 | 23.7 | 
Nc1n[nH]cc1C(=O)Nc1nncs1 |  |  |  | 0.102 | 18.9 | 
O=C(CN1CCN(CC(=O)Nc2nncs2)CC1)Nc1nncs1 | 8.7 | 18 | 37 |  |  | 
CC1=NN(c2ccccc2)C(=O)/C1=C/c1ccc(Nc2nncs2)cc1 | 8.8 | 17 | 31 | 0.105 | 41.6 | 
O=c1[nH]cc(F)c(=O)[nH]1 [FLUOROURACIL] | 40 | 63 | 97 |  |  | 
O=C(CCl)Nc1nncs1 | 7.8 | 16 | 28 | 0.102 | 27.1 | 
